One may read the EC50 as the concentration at which the effect is half-maximal. High values mean a need for much substance, low ones an effect from little substance.

SMILES strings stand for the structures. Bounds are passed on as bounds.

The first experiment deals with NAMPT enzyme (Homo sapiens (Human), UniProt P43490). Kind of experiment: Enzyme Assay and NMN Detection (NAMPT reaction, fluorescence detection of NMN). To be noted: Table B-4; NAMPT activation, NMN formation. The experiment is classed as biochemical. The method, then: NAMPT reaction was performed in 50 mM HEPES, pH 7.5, containing 5 mM MgCl2, 0.1% Prionex, 0.005% Tween 20, and 1 mM TCEP at room temperature in Greiner 384-well black polypropylene plates. The concentration of substrates and enzymes in the final assay were as follows: ATP (120 uM), nicotinamide (5 uM), phosphoribosylpyrophosphate (6.25 uM), NAMPT enzyme (16 nM), pyrophosphatase (0.04 U/ml) in the final reaction volume 6 uL. Following 2 h incubation the reaction was stopped by addition 2.5 ul 20% acetophenone in dimethyl sulfoxide (DMSO) and 2.5 ul 2 MKOH. Plates were centrifuges and added with 10.5 ul 88% formic acid. The fluorescence (ex380/em460) was measured following another short incubation and 30 min incubation. The increased concentration of NMN was determined from a calibration curve obtained at the time of experiment.
Chain of NAMPT enzyme (P43490 whole entry, species assumed): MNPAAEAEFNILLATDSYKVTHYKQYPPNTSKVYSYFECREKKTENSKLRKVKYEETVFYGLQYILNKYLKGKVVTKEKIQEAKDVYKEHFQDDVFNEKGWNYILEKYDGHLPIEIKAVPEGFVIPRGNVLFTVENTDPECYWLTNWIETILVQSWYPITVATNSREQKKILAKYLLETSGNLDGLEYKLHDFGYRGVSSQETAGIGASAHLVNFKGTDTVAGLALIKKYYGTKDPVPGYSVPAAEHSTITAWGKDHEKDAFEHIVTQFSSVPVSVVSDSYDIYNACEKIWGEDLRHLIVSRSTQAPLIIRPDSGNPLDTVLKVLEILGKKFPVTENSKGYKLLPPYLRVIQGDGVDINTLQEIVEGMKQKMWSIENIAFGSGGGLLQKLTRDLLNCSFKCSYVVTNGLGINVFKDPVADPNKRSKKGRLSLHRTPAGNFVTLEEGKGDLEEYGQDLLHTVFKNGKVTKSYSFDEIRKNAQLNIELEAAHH
`Cn1nc(-c2ccc(NC(=O)NCc3cn[nH]c3)cc2)c2cc(Cl)ccc21` [1-((1H-Pyrazol-4-yl)methyl)-3-(4-(5-chloro-1-methyl-1H-indazol-3-yl)phenyl)urea] displayed an EC50 of 100 to 2000 nM. The same measure, in the same setting: next, `O=C(NCc1cn[nH]c1)Nc1ccc(-c2ncc(-c3ccccc3)s2)cc1` [1-((1H-Pyrazol-4-yl)methyl)-3-(4-(5-phenylthiazol-2-yl)phenyl)urea]: 5000 to 20000 nM; `O=C(NCc1cn[nH]c1)Nc1ccc(S(=O)(=O)c2cn[nH]c2)cc1` [1-((1H-Pyrazol-4-yl)methyl)-3-(4-((1H-pyrazol-4-yl)sulfonyl)phenyl)urea]: 100 to 2000 nM. `COc1ccc(-c2ccccc2S(=O)(=O)c2ccc(NC(=O)NCc3cn[nH]c3)cc2)cn1` [1-((1H-Pyrazol-4-yl)methyl)-3-(4-((2-(6-methoxypyridin-3-yl)phenyl)sulfonyl)phenyl)urea] came in with an EC50 of 5000 to 20000 nM. Still for that read-out and setting: next, `O=C(NCc1cn[nH]c1)Nc1ccc(S(=O)(=O)c2ccccc2F)cc1` [1-((1H-Pyrazol-4-yl)methyl)-3-(4-((2-fluorophenyl)sulfonyl)phenyl)urea]: below 100 nM; `O=C(NCc1cn[nH]c1)Nc1ccc(S(=O)(=O)c2ccccc2-c2ccccc2Cl)cc1` [1-((1H-Pyrazol-4-yl)methyl)-3-(4-((2′-chloro-[1,1′-biphenyl]-2-yl)sulfonyl)phenyl)urea]: 100 to 2000 nM; `Cc1ccccc1-c1ccccc1S(=O)(=O)c1ccc(NC(=O)NCc2cn[nH]c2)cc1` [1-((1H-Pyrazol-4-yl)methyl)-3-(4-((2′-methyl-[1,l′-biphenyl]-2-yl)sulfonyl)phenyl)urea]: 100 to 2000 nM. The same measure, in the same setting: next, `O=C(NCc1cn[nH]c1)Nc1ccc(S(=O)(=O)c2cccc(F)c2)cc1` [1-((1H-Pyrazol-4-yl)methyl)-3-(4-((3-fluorophenyl)sulfonyl)phenyl)urea]: below 100 nM; `N#Cc1cccc(-c2ccccc2S(=O)(=O)c2ccc(NC(=O)NCc3cn[nH]c3)cc2)c1` [1-((1H-Pyrazol-4-yl)methyl)-3-(4-((3′-cyano-[1,1′-biphenyl]-2-yl)sulfonyl)phenyl)urea]: 5000 to 20000 nM.

On to `COc1ccccc1-c1csc(Nc2ccc(NC(=O)NCc3cn[nH]c3)cc2)n1` [1-((1H-Pyrazol-4-yl)methyl)-3-(4-((4-(2-methoxyphenyl)thiazol-2-yl)amino)phenyl)urea], for which the EC50 lay in the range of 100 to 2000 nM. On the same count and under the same terms, under `COc1cccc(-c2csc(Nc3ccc(NC(=O)NCc4cn[nH]c4)cc3)n2)c1` [1-((1H-Pyrazol-4-yl)methyl)-3-(4-((4-(3-methoxyphenyl)thiazol-2-yl)amino)phenyl)urea] stands 100 to 2000 nM; under `COc1ccc(-c2csc(Nc3ccc(NC(=O)NCc4cn[nH]c4)cc3)n2)cc1` [1-((1H-Pyrazol-4-yl)methyl)-3-(4-((4-(4-methoxyphenyl)thiazol-2-yl)amino)phenyl)urea], 100 to 2000 nM. On the same count and under the same terms, next, `O=C(NCc1cn[nH]c1)Nc1ccc(S(=O)(=O)c2ccc(C(F)(F)F)cc2)cc1` [1-((1H-Pyrazol-4-yl)methyl)-3-(4-((4-(trifluoromethyl)phenyl)sulfonyl)phenyl)urea]: 100 to 2000 nM. Same read-out and setting: next, `O=C(NCc1cn[nH]c1)Nc1ccc(S(=O)(=O)c2ccc(F)cc2)cc1` [1-((1H-Pyrazol-4-yl)methyl)-3-(4-((4-fluorophenyl)sulfonyl)phenyl)urea]: below 100 nM; `O=C(NCc1cn[nH]c1)Nc1ccc(Nc2nc(-c3ccccc3)cs2)cc1` [1-((1H-Pyrazol-4-yl)methyl)-3-(4-((4-phenylthiazol-2-yl)amino)phenyl)urea]: 100 to 2000 nM; `N#Cc1ccc(-c2ccccc2S(=O)(=O)c2ccc(NC(=O)NCc3cn[nH]c3)cc2)cc1` [1-((1H-Pyrazol-4-yl)methyl)-3-(4-((4′-cyano-[1,1′-biphenyl]-2-yl)sulfonyl)phenyl)urea]: 5000 to 20000 nM. `O=C(NCc1cn[nH]c1)Nc1ccc(Nc2ncc(-c3ccccc3)s2)cc1` [1-((1H-Pyrazol-4-yl)methyl)-3-(4-((5-phenylthiazol-2-yl)amino)phenyl)urea] gave an EC50 of 100 to 2000 nM.

Turning to `O=C(NCc1cn[nH]c1)Nc1ccc(S(=O)(=O)c2ccccc2-c2ccccc2)cc1` [1-((1H-Pyrazol-4-yl)methyl)-3-(4-([1,1′-biphenyl]-2-ylsulfonyl)phenyl)urea], the EC50 is below 100 nM. For `O=C(NCc1cn[nH]c1)Nc1ccc(S(=O)(=O)c2cccc(-c3ccccc3)c2)cc1` [1-((1H-Pyrazol-4-yl)methyl)-3-(4-([1,1′-biphenyl]-3-ylsulfonyl)phenyl)urea], the EC50 is 100 to 2000 nM. `O=C(NCc1cn[nH]c1)Nc1ccc(-c2nc3ccccc3s2)cc1` [1-((1H-Pyrazol-4-yl)methyl)-3-(4-(benzo[d]thiazol-2-yl)phenyl)urea] showed an EC50 of 5000 to 20000 nM. On the same count and under the same terms, next, `O=C(NCc1cn[nH]c1)Nc1ccc(Nc2nc3ccccc3s2)cc1` [1-((1H-Pyrazol-4-yl)methyl)-3-(4-(benzo[d]thiazol-2-ylamino)phenyl)urea]: above 20000 nM; `O=C(NCc1cn[nH]c1)Nc1ccc(S(=O)(=O)c2ccccn2)cc1` [1-((1H-Pyrazol-4-yl)methyl)-3-(4-(pyridin-2-ylsulfonyl)phenyl)urea]: 100 to 2000 nM. Still for that read-out and setting: under `O=C(NCc1cn[nH]c1)Nc1ccc(S(=O)(=O)c2ccncc2)cc1` [1-((1H-Pyrazol-4-yl)methyl)-3-(4-(pyridin-4-ylsulfonyl)phenyl)urea] stands 100 to 2000 nM; under `O=C(NCc1cn[nH]c1)Nc1ccc(S(=O)(=O)c2cncnc2)cc1` [1-((1H-Pyrazol-4-yl)methyl)-3-(4-(pyrimidin-5-ylsulfonyl)phenyl)urea], 100 to 2000 nM.

The experiment is the same for the next values; noted with them: Table B-5; NAMPT activation, NMN formation.
Take `O=C(NCc1cnco1)Nc1ccc(-c2ncc(-c3ccccc3)s2)cc1` [1-(Oxazol-5-ylmethyl)-3-(4-(5-phenylthiazol-2-yl)phenyl)urea]: the EC50 was 5000 to 20000 nM.

Compound `O=C(NCc1cnco1)Nc1ccc(S(=O)(=O)c2cccc(C(F)(F)F)c2)cc1` [1-(Oxazol-5-ylmethyl)-3-(4-((3-(trifluoromethyl)phenyl)sulfonyl)phenyl)urea] came in with an EC50 of 100 to 2000 nM.

`O=C(NCc1cnco1)Nc1ccc(S(=O)(=O)c2ccc(C(F)(F)F)cc2)cc1` [1-(Oxazol-5-ylmethyl)-3-(4-((4-(trifluoromethyl)phenyl)sulfonyl)phenyl)urea] displayed an EC50 of 100 to 2000 nM. Same read-out and setting: under `O=C(NCc1cnco1)Nc1ccc(Nc2nc(-c3ccccc3)cs2)cc1` [1-(Oxazol-5-ylmethyl)-3-(4-((4-phenylthiazol-2-yl)amino)phenyl)urea] stands 2000 to 5000 nM; under `O=C(NCc1cnco1)Nc1ccc(Nc2ncc(-c3ccccc3)s2)cc1` [1-(Oxazol-5-ylmethyl)-3-(4-((5-phenylthiazol-2-yl)amino)phenyl)urea], 100 to 2000 nM. As for `O=C(NCc1cnco1)Nc1ccc(S(=O)(=O)c2ccccn2)cc1` [1-(Oxazol-5-ylmethyl)-3-(4-(pyridin-2-ylsulfonyl)phenyl)urea], the concentration for a half-maximal effect (EC50) lay in the range of 100 to 2000 nM. On the same count and under the same terms, next, `O=C(NCc1cnco1)Nc1ccc(S(=O)(=O)c2ccncc2)cc1` [1-(Oxazol-5-ylmethyl)-3-(4-(pyridin-4-ylsulfonyl)phenyl)urea]: 100 to 2000 nM.

The same experiment, now with this note: Table B-6; NAMPT activation, NMN formation.
Consider `O=C(NCc1cn[nH]c1)Nc1ccc(S(=O)(=O)c2cccc(C(F)(F)F)c2)cc1` [1-((1H-Pyrazol-4-yl)methyl)-3-(4-((3-(trifluoromethyl)phenyl)sulfonyl)phenyl)urea], for which the EC50 was 100 to 2000 nM.

(Values after patent US11452717B2, “Small molecule activators of nicotinamide phosphoribosyltransferase (NAMPT) and uses thereof” (Sanford Burnham Prebys Medical Discovery Institute, priority 2017, dated 2022).)
